Experimental data as given in publication PMC10607100, “Anticancer and Antiphytopathogenic Activity of Fluorinated Isatins and Their Water-Soluble Hydrazone Derivatives” (International Journal of Molecular Sciences, 2023).
Where two headings read alike, the source gives them in different places.

Tests used:
[1] = tested on: Phytophthora cactorum VKM F-985; assay: Mycelial radial growth inhibition; format: cell-based; settings: for inhibition of growth at 3 µM: 3 nmol/mL; for inhibition of growth at 3 µM / inhibition of growth at 7 µM / inhibition of growth / inhibition of growth at 40 µM: read-out: Inhibition value, I (%); for inhibition of growth at 7 µM: 7 nmol/mL; for inhibition of growth: 27 nmol/mL; for inhibition of growth at 40 µM: 40 nmol/mL
In short: (§1)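 Compounds mixed into molten GPY agar at various concentrations; centre inoculated with a 5-mm mycelial plug from 10-day cultures and incubated at 27 °C. Colony diameter compared with untreated control until control plate was covered (usually 12 days); ≥4 replicates in two experiments.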

[2] = tested on: Fusarium oxysporum IBPPM 543; assay: Mycelial radial growth inhibition; format: cell-based; settings: Fusarium oxysporum; for inhibition of growth at 1 µM: 1 nmol/mL; for inhibition of growth at 1 µM / inhibition of growth at 5 µM / inhibition of growth at 20 µM / inhibition of growth at 40 µM: read-out: Inhibition value, I (%); for inhibition of growth at 5 µM: 5 nmol/mL; for inhibition of growth at 20 µM: 20 nmol/mL; for inhibition of growth at 40 µM: 40 nmol/mL
In short: as §1

[3] = tested on: Pectobacterium carotovorum subsp. carotovorum MI; assay: Agar-well diffusion, bactericidal activity; format: cell-based; settings: Pectobacterium carotovorum, 2 mM/L
In short: (§2)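 Bacteria spread on agar (BP medium; GYCa for X. campestris; pH 7.2–7.4) with 6-mm wells, each receiving 150 μL compound solution. Cultures grown at 28 °C; growth-inhibition zone width measured after 36–40 h.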

Micrococcus luteus B-109 = assay: Agar-well diffusion, bactericidal activity; format: cell-based; settings: Micrococcus luteus, B109, 2 mM/L; average of 3 experiments; read-out: width of the inhibition zone (mm), M. luteus
In short: as §2

[4] = tested on: Pectobacterium atrosepticum 1043; assay: Agar-well diffusion, bactericidal activity; format: cell-based; settings: Pectobacterium atrosepticum, 1043, 2 mM/L
In short: as §2

[5] = tested on: Pseudomonas fluorescens EL-2.1; assay: Agar-well diffusion, bactericidal activity; format: cell-based; settings: Pseudomonas fluorescens, EL2.1, 2 mM/L
In short: as §2

[6] = tested on: Xanthomonas campestris B-610; assay: Agar-well diffusion, bactericidal activity; format: cell-based; settings: Xanthomonas campestris
In short: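 Agar-well diffusion on GYCa agar (pH 7.2–7.4) seeded with bacterial suspension; 150 μL compound solution placed in 6-mm wells. Inhibition zone width measured after 36–40 h incubation.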

[7] = tested on: five representative phytopathogens; assay: Agar-well diffusion, bactericidal activity over the panel of phytopathogens; format: cell-based; settings: 36 h, 2 mM solutions; dependent on the test system used; read-out: inhibition zone width (mm), range over the test systems
In short: as §2

[8] = Phytophthora cactorum, 72 h, age of the fungus 3 days
[9] = Phytophthora cactorum, 120 h, age of the fungus 5 days
[10] = Phytophthora cactorum, 168 h, age of the fungus 7 days
[11] = Phytophthora cactorum, 216 h, age of the fungus 9 days
[12] = IBPPM543, 72 h, age of the fungus 3 days
[13] = IBPPM543, 120 h, age of the fungus 5 days
[14] = IBPPM543, 168 h, age of the fungus 7 days
[15] = IBPPM543, 216 h, age of the fungus 9 days
[16] = Table S3, read-out: Inhibition zone width (mm), not less

For `O=C(C[n+]1ccccc1)NN=C1C(=O)N(Cc2cccc(C(F)(F)F)c2)c2ccc(F)cc21.[Cl-]` [Compound 5c, 1-(2-(2-(5-Fluoro-2-oxo-1-(3-(trifluoromethyl)benzyl)indolin-3-ylidene)hydrazinyl)-2-oxoethyl)pyridin-1-ium chloride], the “antagonistic effect superior to that of N-cetylpyridinium chloride” value ([1]; 5 days of growth) was 2.3 times, the inhibition of growth at 3 µM [1, 8] was 7% and the inhibition of growth at 7 µM [1, 8] was 13%. The inhibition of growth [1, 8] was 36%, the inhibition of growth at 40 µM [1, 8] was 55% and the EC50 ([1]; Phytophthora cactorum, 120 h, day 5, read-out: EC50, µg/mL at Day 5, P. cactorum) was 15 µg/mL. For the same molecule, the inhibition of growth at 3 µM [1, 9] was 8%, the inhibition of growth at 7 µM [1, 9] was 21% and the inhibition of growth [1, 9] was 38%. The inhibition of growth at 40 µM [1, 9] was 64%, the inhibition of growth at 3 µM [1, 10] was 4% and the inhibition of growth at 7 µM [1, 10] was 14%. It also gave an inhibition of growth [1, 10] of 29%, an inhibition of growth at 40 µM [1, 10] of 42% and an inhibition of growth at 3 µM [1, 11] of 3%. It also gave an inhibition of growth at 7 µM [1, 11] of 12%, an inhibition of growth [1, 11] of 18% and an inhibition of growth at 40 µM [1, 11] of 36%. The “EC50, µg/mL at Day 5, P. cactorum” value ([1]; day 5) was 15.40 µg/mL, the inhibition of growth at 1 µM [2, 12] was 22% and the inhibition of growth at 5 µM [2, 12] was 40%. The inhibition of growth at 20 µM [2, 12] was 49%, the inhibition of growth at 40 µM [2, 12] was 57% and the EC50 ([2]; IBPPM543, 120 h, day 5, read-out: EC50, µg/mL at Day 5, F. oxysporum) was 14.9 µg/mL. The inhibition of growth at 1 µM [2, 13] was 19%, the inhibition of growth at 5 µM [2, 13] was 36% and the inhibition of growth at 20 µM [2, 13] was 45%. It also gave an inhibition of growth at 40 µM [2, 13] of 55%, an inhibition of growth at 1 µM [2, 14] of 13% and an inhibition of growth at 5 µM [2, 14] of 28%. It also gave an inhibition of growth at 20 µM [2, 14] of 35%, an inhibition of growth at 40 µM [2, 14] of 52% and an inhibition of growth at 1 µM [2, 15] of 3%. The inhibition of growth at 20 µM [2, 15] was 21%, the inhibition of growth at 40 µM [2, 15] was 51% and the zone of inhibition at 2000 µM ([3]; average of 3 experiments, read-out: width of the inhibition zone (mm), P. carotovorum subsp. carotovorum) was 5 mm. The zone of inhibition at 2000 µM [3, 16] was ≥ 5 mm, the zone of inhibition at 2000 µM (Micrococcus luteus B-109) was 4 mm and the zone of inhibition at 2000 µM ([4]; average of 3 experiments, read-out: width of the inhibition zone (mm), P. atrosepticum) was 5 mm. For the same molecule, the zone of inhibition at 2000 µM [4, 16] was ≥ 5 mm, the zone of inhibition at 2000 µM ([5]; average of 3 experiments, read-out: width of the inhibition zone (mm), Ps. fluorescens) was 5 mm and the zone of inhibition at 2000 µM [5, 16] was ≥ 5 mm. The melting point was 172 to 173 °C, the zone of inhibition at 2000 µM ([6]; B610, 2 mM/L, average of 3 experiments, read-out: width of the inhibition zone (mm), X. campestris) was 7 mm and the zone of inhibition at 2000 µM ([6]; B610, Table S3, 2 mM/L, read-out: Inhibition zone width (mm), not less) was ≥ 7 mm. The zone of inhibition at 2000 µM [7] was 4 to 7 mm.
